Measurements taken from patent publication US12145944B2, “Imidazopyrimidines as EED inhibitors and the use thereof” (THE REGENTS OF THE UNIVERSITY OF MICHIGAN, priority 2019, dated 2024).
Where two headings read alike, the source gives them in different places.

Legend:
[1] = target: T1, EED (1-441)-His protein (Homo sapiens, UniProt O75530); experiment: EED-H3K27Me3 peptide competition binding assay by AlphaScreen; conditions: EED Alpha screen binding assay, read-out: Alpha screen
T1 construct: 20 nM EED (1-441)-His protein
Procedure: “N/A” stands for “not assessed”.
EED-H3K27Me3 peptide competition binding assay by AlphaScreen (α-screen)
2.5 μl of solutions containing 20 nM biotin-H3K27Me3 (19-33) peptide in the buffer (25 mM HEPES, pH 8, 0.02% Tween-20, 0.5% BSA) were added to the wells and then incubated with compound for 30 min. […] Then 10 μl of the detection beads mix was added to the plate and incubated in the dark at RT for 1 h. The final concentration of donor and acceptor beads was 10 μg/ml for each. […] The data were then fit to a dose response equation to get the IC50 values.

[2] = test system: KARPAS422 human B cell lymphoma cell; experiment: Cell proliferation, KARPAS422, 7 day treatment (WST-8); type: cell-based
How it was run: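 KARPAS422 cells seeded at 2 000-3 000 cells/well and exposed to serially diluted compounds for 7 days at 37 °C, 5% CO2. Growth measured by WST-8 (1-4 h, absorbance 450 nm). Readings normalized to DMSO-treated cells; IC50 from nonlinear regression.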

[3] = test system: Pfeiffer cell line; experiment: Anti-proliferative activity, Pfeiffer cell line, 7 day treatment; type: cell-based
How it was run: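 Cells seeded at 2 000-3 000 per well were treated with serially diluted compounds for 7 days at 37° C, 5% CO2. Growth was measured by WST-8 assay read at 450 nm after 1-4 h reagent incubation. Readings were normalized to DMSO-treated cells and IC50 values derived by nonlinear regression.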

[4] = Homo sapiens, KARPAS-422, 168 h, anti-proliferative IC50 class, Karpas 422 cell line, 7 day treatment, read-out: Karpas Cell line
[5] = Homo sapiens, 168 h, anti-proliferative IC50 class, Pfeiffer cell line, 7 day treatment, read-out: Pfeiffer Cell line

T1 sequence (O75530 whole entry): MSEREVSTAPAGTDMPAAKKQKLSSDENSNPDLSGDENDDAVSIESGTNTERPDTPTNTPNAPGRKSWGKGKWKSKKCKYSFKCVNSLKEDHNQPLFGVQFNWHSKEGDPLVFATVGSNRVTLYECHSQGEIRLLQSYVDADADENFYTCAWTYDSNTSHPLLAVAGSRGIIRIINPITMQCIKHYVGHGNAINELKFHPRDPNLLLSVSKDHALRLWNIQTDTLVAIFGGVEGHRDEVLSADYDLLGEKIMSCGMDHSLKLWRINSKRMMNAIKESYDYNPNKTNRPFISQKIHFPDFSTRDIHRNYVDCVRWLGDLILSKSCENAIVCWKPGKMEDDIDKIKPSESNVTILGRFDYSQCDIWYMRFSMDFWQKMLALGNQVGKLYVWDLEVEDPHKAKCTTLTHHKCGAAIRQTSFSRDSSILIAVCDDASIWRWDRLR

O=C1Nc2ncccc2-c2cnc(NCc3c(F)ccc4c3CCO4)n3cnc1c23 [compound 4, 11-(((5-fluoro-2,3-dihydrobenzofuran-4-yl)methyl)amino)-2,4,5,10,11a-pentaazadibenzo[cd,f]azulen-3(4H)-one]
IC50 [1]: > 10 nM | IC50 ([2]; Homo sapiens, KARPAS-422, 168 h, anti-proliferative IC50, Karpas 422 cell line, 7 day treatment, read-out: Karpas Cell line): > 100 nM | IC50 ([3]; Homo sapiens, 168 h, anti-proliferative IC50, Pfeiffer cell line, 7 day treatment, read-out: Pfeiffer Cell line): > 100 nM

O=C1c2ncn3c(NCc4c(F)ccc5c4CCO5)ncc(c23)-c2ccc(C3COC3)nc2CN1CC(F)(F)F [E 51, 12-(((5-fluoro-2,3-dihydrobenzofuran-4-yl)methyl)amino)-7-(oxetan-3-yl)-4-(2,2,2-trifluoroethyl)-4,5-dihydro-3H-2,4,6,11,12a-pentaazabenzo[4,5]cycloocta[1,2,3-cd]inden-3-one]
IC50 ([1]; IC50 class): < 10 nM | IC50 [2, 4]: < 10 nM | IC50 [3, 5]: < 10 nM

O=C1c2ncn3c(NCc4c(F)ccc5c4CCO5)ncc(c23)-c2sccc2CN1C1CC1 [compound 87, 4-cyclopropyl-11-(((5-fluoro-2,3-dihydrobenzofuran-4-yl)methyl)amino)-4,5-dihydro-3H-8-thia-2,4,10,11a-tetraazacyclopenta[4,5]cycloocta[1,2,3-cd]inden-3-one]
IC50 [1]: 11.2 nM | IC50 ([2]; anti-proliferative IC50, Karpas 422 cell line, 7 day treatment, read-out: Karpas Cell line): 8.67 nM | IC50 ([3]; anti-proliferative IC50, Pfeiffer cell line, 7 day treatment, read-out: Pfeiffer Cell line): 0.018 nM

Cc1ccc(-c2cc(C#N)c(NCc3c(F)ccc4c3CCO4)n3cnc(S(C)(=O)=O)c23)c(C)n1 [E 25, 8-(2,6-dimethylpyridin-3-yl)-5-(((5-fluoro-2,3-dihydrobenzofuran-4-yl)methyl)amino)-1-(methylsulfonyl)imidazo[1,5-a]pyridine-6-carbonitrile]
IC50 ([1]; IC50 class): < 10 nM | IC50 [2, 4]: 10 to 100 nM | IC50 [3, 5]: 10 to 100 nM

[2H]C([2H])(Nc1ncc2c3c(ncn13)C(=O)N(CC(F)(F)F)Cc1nc(C)ccc1-2)c1c(F)ccc2c1CCO2 [E 20, 12-(((5-fluoro-2,3-dihydrobenzofuran-4-yl)methyl-d2)amino)-7-methyl-4-(2,2,2-trifluoroethyl)-4,5-dihydro-3H-2,4,6,11,12a-pentaazabenzo[4,5]cycloocta[1,2,3-cd]inden-3-one]
IC50 ([1]; IC50 class): < 10 nM | IC50 [2, 4]: < 10 nM | IC50 [3, 5]: < 10 nM

[2H]C1Oc2ccc(F)c(C([2H])([2H])Nc3ncc4c5c(ncn35)C(=O)N(CC(F)(F)F)Cc3nc(C([2H])([2H])[2H])ccc3-4)c2C1[2H] (stereo not drawn) [E 23, 12-(((5-fluoro-2,3-dihydrobenzofuran-4-yl-2,3-d2)methyl-d2)amino)-7-(methyl-d3)-4-(2,2,2-trifluoroethyl)-4,5-dihydro-3H-2,4,6,11,12a-pentaazabenzo[4,5]cycloocta[1,2,3-cd]inden-3-one]
IC50 ([1]; IC50 class): < 10 nM | IC50 [2, 4]: < 10 nM | IC50 [3, 5]: < 10 nM

CS(=O)(=O)c1ncn2c(NCc3c(F)ccc4c3CCO4)ncc(-c3ccc(C(F)(F)F)nc3)c12 [compound 102, N-((5-fluoro-2,3-dihydrobenzofuran-4-yl)methyl)-1-(methylsulfonyl)-8-(6-(trifluoromethyl)pyridin-3-yl)imidazo[1,5-c]pyrimidin-5-amine]
IC50 [1]: 0.62 nM | IC50 ([2]; Homo sapiens, KARPAS-422, 168 h, read-out: Karpas Cell line (nM)): 0.94 nM | IC50 ([3]; Homo sapiens, Pfeiffer, 168 h, read-out: Pfeiffer Cell line (nM)): 0.59 nM

CC(C)N1Cc2cc(C(F)(F)F)ncc2-c2cnc(NCc3c(F)ccc4c3CCO4)n3cnc(c23)C1=O [E 40, 12-(((5-fluoro-2,3-dihydrobenzofuran-4-yl)methyl)amino)-4-isopropyl-7-(trifluoromethyl)-4,5-dihydro-3H-2,4,8,11,12a-pentaazabenzo[4,5]cycloocta[1,2,3-cd]inden-3-one]
IC50 ([1]; IC50 class): < 10 nM | IC50 [2, 4]: < 10 nM | IC50 [3, 5]: < 10 nM

[2H]C([2H])([2H])c1ccc2c(n1)CN(CC(F)(F)F)C(=O)c1ncn3c(NC([2H])([2H])c4c(F)ccc5c4CCO5)ncc-2c13 [E 21, 12-(((5-fluoro-2,3-dihydrobenzofuran-4-yl)methyl-d2)amino)-7-(methyl-d3)-4-(2,2,2-trifluoroethyl)-4,5-dihydro-3H-2,4,6,11,12a-pentaazabenzo[4,5]cycloocta[1,2,3-cd]inden-3-one]
IC50 ([1]; IC50 class): < 10 nM | IC50 [2, 4]: < 10 nM | IC50 [3, 5]: < 10 nM

Cc1ncccc1-c1cc(C#N)c(NCc2c(F)ccc3c2CCO3)n2cnc(S(C)(=O)=O)c12 [E 27, 5-(((5-fluoro-2,3-dihydrobenzofuran-4-yl)methyl)amino)-8-(2-methylpyridin-3-yl)-1-(methylsulfonyl)imidazo[1,5-a]pyridine-6-carbonitrile]
IC50 ([1]; IC50 class): 10 to 100 nM | IC50 [2, 4]: 10 to 100 nM | IC50 [3, 5]: < 10 nM

[2H]C([2H])([2H])c1ccc2c(n1)CN(CC(F)(F)F)C(=O)c1ncn3c(NCc4c(F)ccc5c4CCO5)ncc-2c13 [E 19, 12-(((5-fluoro-2,3-dihydrobenzofuran-4-yl)methyl)amino)-7-(methyl-d3)-4-(2,2,2-trifluoroethyl)-4,5-dihydro-3H-2,4,6,11,12a-pentaazabenzo[4,5]cycloocta[1,2,3-cd]inden-3-one]
IC50 ([1]; IC50 class): < 10 nM | IC50 [2, 4]: < 10 nM | IC50 [3, 5]: < 10 nM

CS(=O)(=O)c1ncn2c(NCc3c(F)ccc4c3CCO4)c(C#N)cc(-c3ccc(C4CC4)nc3)c12 [E 26, 8-(6-cyclopropylpyridin-3-yl)-5-(((5-fluoro-2,3-dihydrobenzofuran-4-yl)methyl)amino)-1-(methylsulfonyl)imidazo[1,5-a]pyridine-6-carbonitrile]
IC50 ([1]; IC50 class): 10 to 100 nM | IC50 [2, 4]: 10 to 100 nM | IC50 [3, 5]: < 10 nM

Cc1ccc2c(n1)CN(CC(F)(F)F)C(=O)c1ncn3c(NCc4c(F)ccc5c4CCO5)ncc-2c13 [E 3, 12-(((5-fluoro-2,3-dihydrobenzofuran-4-yl)methyl)amino)-7-methyl-4-(2,2,2-trifluoroethyl)-4,5-dihydro-3H-2,4,6,11,12a-pentaazabenzo[4,5]cycloocta[1,2,3-cd]inden-3-one]
IC50 ([1]; IC50 class): < 10 nM | IC50 [2, 4]: < 10 nM | IC50 [3, 5]: < 10 nM
